Test [1] has as its target T1, PRMT5 (Homo sapiens, UniProt O14744).
T1 construct: purchased Viva (custom protein)
The test is described as follows: PRMT5 biochemical IC50 assay with SAM as cofactor. The settings on record: PRMT5, SAM as cofactor; read-out: SAM IC50.

Test [2] deals with HAP1 MTAP-deleted cell line. The test is described as follows: Viability assay, MTAP-deleted cell line. The class given is cell-based. The settings on record: read-out: HAP1 MTAP deleted viability. An excerpt: Table 1 additionally indicates IC50 values in a viability assay for the MTAP-deleted cell line (column 10), indicating the effect of treatment with compound on cell survival.

For test [3], the target named is T1, PRMT5. In words: PRMT5 biochemical IC50 assay with MTA as cofactor. The settings on record: PRMT5, MTA as cofactor; read-out: MTA IC50.
Test [4] addresses T1, PRMT5. The test is described as follows: PRMT5 biochemical IC50 assay with no cofactor. The settings on record: PRMT5, no cofactor. From the text:
Table 1 indicates IC50 values (μM) against PRMT5 for exemplary compounds in the presence of SAM as cofactor, with no cofactor, and with MTA as cofactor, respectively (columns 4-6). […] Ki values can be calculated from the IC50 values as described in the Examples section. As detailed in the Examples section, for the assay performed in the presence of SAM, IC50=Ki×1.5 (Ki=IC50/1.5).

Where [5] appears, read: Homo sapiens, HAP1, viability assay, MTAP-deleted cell line.
Where [6] appears, read: read-out: No Cofactor/ rel IC50.

Like-named read-outs stand apart in the source and are kept apart here. Where only a bound is given, the exact number is not on record here.

T1 sequence (O14744 whole entry): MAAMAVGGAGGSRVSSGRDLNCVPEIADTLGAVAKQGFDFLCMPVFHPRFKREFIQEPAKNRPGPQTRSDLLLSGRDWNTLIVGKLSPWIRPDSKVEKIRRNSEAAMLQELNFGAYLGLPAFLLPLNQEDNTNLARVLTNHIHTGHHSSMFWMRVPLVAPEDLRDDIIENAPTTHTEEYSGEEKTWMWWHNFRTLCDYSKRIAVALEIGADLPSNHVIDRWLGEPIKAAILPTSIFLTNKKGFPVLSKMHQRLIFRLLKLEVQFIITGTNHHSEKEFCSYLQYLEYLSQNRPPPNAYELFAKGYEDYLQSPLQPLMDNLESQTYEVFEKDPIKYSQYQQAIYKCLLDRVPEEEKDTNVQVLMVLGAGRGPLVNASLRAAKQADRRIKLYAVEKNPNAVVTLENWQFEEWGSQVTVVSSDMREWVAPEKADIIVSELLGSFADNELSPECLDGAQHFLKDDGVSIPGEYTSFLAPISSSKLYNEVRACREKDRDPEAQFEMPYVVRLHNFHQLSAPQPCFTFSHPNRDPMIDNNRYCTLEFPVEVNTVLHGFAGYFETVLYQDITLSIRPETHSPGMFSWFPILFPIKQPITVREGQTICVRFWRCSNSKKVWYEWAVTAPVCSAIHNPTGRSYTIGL
T1 sequence (Q9BQA1 whole entry partner): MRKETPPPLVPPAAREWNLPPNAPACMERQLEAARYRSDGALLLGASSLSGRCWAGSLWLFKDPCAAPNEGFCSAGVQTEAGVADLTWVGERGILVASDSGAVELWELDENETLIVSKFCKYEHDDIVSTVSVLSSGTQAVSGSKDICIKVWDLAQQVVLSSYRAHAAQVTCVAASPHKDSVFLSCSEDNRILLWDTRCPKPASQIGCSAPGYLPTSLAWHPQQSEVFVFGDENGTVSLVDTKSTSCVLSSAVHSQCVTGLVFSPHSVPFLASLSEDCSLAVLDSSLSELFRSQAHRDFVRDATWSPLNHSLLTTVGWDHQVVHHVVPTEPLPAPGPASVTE

Take `C[C@H]1CC[C@H](c2ccc(N[C@H](C)C(=O)N(C)C)cc2)N(C(=O)C(=O)Nc2cncc(C(N)=O)c2)C1` (racemic) [Compound 414, 5-[[2-[(2R,5S)-2-[4-[[(1R)-2-(Dimethylamino)-1-methyl-2-oxo-ethyl]amino]phenyl]-5-methyl-1-piperidyl]-2-oxo-acetyl]amino]pyridine-3-carboxamide]: the IC50 in test [1] was 50 to 500 nM; in test [2] (setting [5]), above 10000 nM; in test [3], 50 to 500 nM; in test [4] (read-out: No Cofactor/rel IC50), 50 to 500 nM.
For the molecule `C[C@@H]1CC[C@@H](c2cc(F)cc(F)c2)N(C(=O)C(=O)Nc2cncc(C(N)=O)c2)C1` (racemic) [Compound 416, rac-5-{2-[(2R,5S)-2-(3,5-Difluorophenyl)-5-methylpiperidin-1-yl]-2-oxoacetamido}pyridine-3-carboxamide], the IC50 fell in the range of 50 to 500 nM in test [1], 1000 to 10000 nM in test [2] (setting [5]), 50 to 500 nM in test [3] and 50 to 500 nM in test [4] (read-out: No Cofactor/rel IC50).
Regarding `NC(=O)c1cncc(NC(=O)C(=O)N2CC[C@H]3C[C@@H](O)CC[C@@H]3C2)c1` (racemic) [Compound 418, 5-[2-(6-Hydroxy-decahydroisoquinolin-2-yl)-2-oxoacetamido]pyridine-3-carboxamide], the IC50 in test [1] was above 500 nM; in test [2] (setting [5]), above 10000 nM; in test [3], 50 to 500 nM; in test [4] (read-out: No Cofactor/rel IC50) it was above 500 nM.
As to `NC(=O)c1cncc(NC(=O)C(=O)N2CC[C@@]3(O)CCCC[C@H]3C2)c1` (racemic) [Compound 421, 5-[2-(4a-Hydroxy-decahydroisoquinolin-2-yl)-2-oxoacetamido]pyridine-3-carboxamide], the IC50 in test [1] is above 500 nM; in test [2] (setting [5]) it was above 10000 nM; in test [3], 50 to 500 nM; in test [4] (read-out: No Cofactor/rel IC50) it was above 500 nM.
Take `Cc1cc(NC(=O)C(=O)N2C[C@H](C)CC[C@H]2C2CCNCC2)cnc1N` (racemic) [Compound 708, N-(6-amino-5-methyl-3-pyridyl)-2-[(2R,5S)-5-methyl-2-(4-piperidyl)-1-piperidyl]-2-oxo-acetamide]: the IC50 in test [1] was above 500 nM; in test [2] (Homo sapiens, HAP1, viability assay, HAP1 MTAP-deleted), above 10000 nM; in test [3], above 500 nM; in test [4] (read-out: No Cofactor/rel IC50), above 500 nM.
On to `Cc1cc(NC(=O)C(=O)N2C[C@H](C)CC[C@H]2c2ccc3c(cnn3C)c2)cnc1N` (racemic) [Compound 922], for which the IC50 is 50 to 500 nM in test [1], below 1000 nM in test [2] (setting [5]), below 50 nM in test [3] and 50 to 500 nM in test [4] (read-out: No Cofactor/rel IC50).
For the molecule `COc1ncc(NC(=O)C(=O)N2C[C@@H](C)CC[C@@H]2c2ccc3sc(N)nc3c2)cc1C(N)=O` (racemic) [Compound 954, 5-[[2-[(2R,5S)-2-(2-amino-1,3-benzothiazol-5-yl)-5-methyl-1-piperidyl]-2-oxo-acetyl]amino]-2-methoxy-pyridine-3-carboxamide], the IC50 was 50 to 500 nM in test [1], below 1000 nM in test [2] (setting [5]), 50 to 500 nM in test [3] and 50 to 500 nM in test [4] (read-out: No Cofactor/rel IC50).
For `Cc1cc(NC(=O)C(=O)N2C[C@H](C)CC[C@H]2c2ccc(C(C)O)cc2)cnc1N` (mixture of isomers) [Compound 956, N-(6-amino-5-methyl-3-pyridyl)-2-[(2R,5S)-2-[4-(1-hydroxyethyl)phenyl]-5-methyl-1-piperidyl]-2-oxo-acetamide], the IC50 in test [1] was in the range of 50 to 500 nM; in test [2] (setting [5]) it was 1000 to 10000 nM; in test [3] it was 50 to 500 nM; in test [4] (read-out: No Cofactor/rel IC50), 50 to 500 nM.
Turning to `Cc1cc(NC(=O)C(=O)N2C[C@H](C)CC[C@H]2c2ccc3[nH]c(N)nc3c2)cnc1N` (racemic) [Compound 990], the IC50 in test [1] was 50 to 500 nM; in test [2] (setting [5]) it was 1000 to 10000 nM; in test [3], below 50 nM; in test [4] (read-out: No Cofactor/rel IC50) it was 50 to 500 nM.
On to `CC(=O)NCc1ccc([C@@H]2CC[C@@H](C)CN2C(=O)C(=O)Nc2cnc(N)c(C)c2)cc1` (racemic) [Compound 1036, rac-2-[(2R,5S)-2-[4-(Acetamidomethyl)phenyl]-5-methyl-1-piperidyl]-N-(6-amino-5-methyl-3-pyridyl)-2-oxo-acetamide], for which the IC50 fell in the range of 50 to 500 nM in test [1], 1000 to 10000 nM in test [2] (setting [5]), 50 to 500 nM in test [3] and 50 to 500 nM in test [4] (read-out: No Cofactor/rel IC50).
For `Cn1nccc1C1CCCCN1C(=O)C(=O)Nc1cncc(C(N)=O)c1` (single isomer, unassigned) [Compound 59], the IC50 in test [1] is above 500 nM; in test [2] (setting [5]) it was above 10000 nM; in test [3] it was 50 to 500 nM; in test [4] (setting [6]), above 500 nM.
In the case of `Cc1cc(NC(=O)C(=O)N2C[C@@H]3CC[C@@H](C3)[C@@H]2c2ccccc2)cnc1N` (single isomer, unassigned) [Compound 62], the IC50 in test [1] was above 500 nM; in test [2] (setting [5]), above 10000 nM; in test [3] it was 50 to 500 nM; in test [4] (setting [6]) it was above 500 nM.
For `C[C@@H]1CCC[C@H](c2ccccc2)N1C(=O)C(=O)Nc1cncc(C(N)=O)c1` (single isomer, unassigned) [Compound 278], the IC50 in test [1] was above 500 nM; in test [2] (setting [5]), above 10000 nM; in test [3], 50 to 500 nM; in test [4] (read-out: No Cofactor/rel IC50), above 500 nM.
For the molecule `COc1ncc(NC(=O)C(=O)N2CCCCC2C2CCCC2)cc1C(N)=O` (single isomer, unassigned) [Compound 289, 5-(2-(2-cyclopentylpiperidin-1-yl)-2-oxoacetamido)-2-methoxynicotinamide], the IC50 is above 500 nM in test [1]; above 10000 nM in test [2] (viability assay, MTAP-deleted cell line); above 500 nM in test [3]; above 500 nM in test [4] (read-out: No Cofactor/rel IC50).
For the molecule `COc1ncc(NC(=O)C(=O)N2C[C@@H](C)CC[C@H]2C2CCCC2)cc1C(N)=O` (single isomer, unassigned) [Compound 295], the IC50 in test [1] was above 500 nM; in test [2] (setting [5]), above 10000 nM; in test [3], above 500 nM; in test [4] (read-out: No Cofactor/rel IC50) it was above 500 nM.
For `CC(=O)N[C@H]1CC[C@H]([C@H]2CC[C@H](C)CN2C(=O)C(=O)Nc2cnc(N)c(C)c2)CC1` (single isomer, unassigned) [Compound 296], the IC50 in test [1] is above 500 nM; in test [2] (setting [5]) it was above 10000 nM; in test [3] it was 50 to 500 nM; in test [4] (read-out: No Cofactor/rel IC50) it was above 500 nM.
For `COc1ncc(NC(=O)C(=O)N2C[C@@H](C)CC[C@@H]2C2CCCC2)cc1C(N)=O` (single isomer, unassigned) [Compound 298], the IC50 in test [1] was above 500 nM; in test [2] (setting [5]) it was above 10000 nM; in test [3] it was above 500 nM; in test [4] (read-out: No Cofactor/rel IC50), above 500 nM.
In the case of `Cc1cc(NC(=O)C(=O)N2C[C@@H](C)[C@@H](C)C[C@H]2c2ccccc2)cnc1N` (single isomer, unassigned) [Compound 304], the IC50 is 50 to 500 nM in test [1], above 10000 nM in test [2] (setting [5]), 50 to 500 nM in test [3] and 50 to 500 nM in test [4] (read-out: No Cofactor/rel IC50).
As for `COc1ncc(NC(=O)C(=O)N2C[C@H](C)CC[C@@H]2C2CCCC2)cc1C(N)=O` (single isomer, unassigned) [Compound 312], the IC50 in test [1] is 50 to 500 nM; in test [2] (setting [5]), above 10000 nM; in test [3], 50 to 500 nM; in test [4] (read-out: No Cofactor/rel IC50) it was above 500 nM.
On to `Cc1cc(NC(=O)C(=O)N2C[C@@H](C)CC[C@@H]2c2cccc(N(C)C)c2)cnc1N` (single isomer, unassigned) [Compound 387], for which the IC50 in test [1], in test [3] and in test [4] (read-out: No Cofactor/rel IC50) was above 500 nM in each case.
Consider `COc1ncc(NC(=O)C(=O)N2C[C@H](C)CC[C@@H]2C2CCCCC2)cc1C(N)=O` (single isomer, unassigned) [Compound 389], for which the IC50 was above 500 nM in test [1], above 10000 nM in test [2] (setting [5]), 50 to 500 nM in test [3] and above 500 nM in test [4] (read-out: No Cofactor/rel IC50).
For `C[C@@H]1CC[C@H](c2ccc(O)nc2)N(C(=O)C(=O)Nc2cncc(C(N)=O)c2)C1` (single isomer, unassigned) [Compound 401], the IC50 is 50 to 500 nM in test [1], above 10000 nM in test [2] (setting [5]), below 50 nM in test [3] and 50 to 500 nM in test [4] (read-out: No Cofactor/rel IC50).
Take `C[C@H]1CC[C@@H](c2ccc(O)nc2)N(C(=O)C(=O)Nc2cncc(C(N)=O)c2)C1` (single isomer, unassigned) [Compound 402]: the IC50 in test [1], in test [3] and in test [4] (read-out: No Cofactor/rel IC50) was above 500 nM throughout.
For the molecule `Cc1ccc([C@H]2CC[C@H](C)CN2C(=O)C(=O)Nc2cncc(C(N)=O)c2)cn1` (single isomer, unassigned) [Compound 645], the IC50 in test [1], in test [3] and in test [4] (read-out: No Cofactor/rel IC50) was above 500 nM in each case.
In the case of `C[C@@H]1CC[C@@H](c2ccc(C(F)(F)F)c(Cl)c2)N(C(=O)C(=O)Nc2cncc(C(N)=O)c2)C1` (single isomer, unassigned) [Compound 647], the IC50 in test [1], in test [3] and in test [4] (read-out: No Cofactor/rel IC50) was above 500 nM in each case.
On to `C[C@@H]1CC[C@@H](c2cc(Cl)cc(C(F)(F)F)c2)N(C(=O)C(=O)Nc2cncc(C(N)=O)c2)C1` (single isomer, unassigned) [Compound 653], for which the IC50 in test [1], in test [3] and in test [4] (read-out: No Cofactor/rel IC50) was above 500 nM throughout.
Turning to `Cc1cc(NC(=O)C(=O)N2C[C@H](C)CC[C@H]2c2ccc3c(c2)C(=O)NC3)cnc1N` (single isomer, unassigned) [Compound 656], the IC50 in test [1], in test [3] and in test [4] (read-out: No Cofactor/rel IC50) was above 500 nM throughout.

Source of the values: patent US11999727B2 (Tango Therapeutics, Inc., priority 2020, dated 2024).
